Experimental findings from PubChem BioAssay AID256 (DTP/NCI, 2004) are described below.

Toxic doses and inconclusive results are not listed. Positions of bridges follow the written chain, without caps; N, C: chain ends. Non-standard residues stand in square brackets, D forms with d. Residues, ends and D or L forms follow the SMILES beside them. Chains are numbered I, II in the order given. *: point of attachment. Quinoxaline2carbonyl = O=C(c1cnc2ccccc2n1)*; NMeV = CN[CH](C(=O)O)C(C)C; NMeC = CN[CH](CS)C(=O)O

This assay deals with CD2F1 mice, L1210 leukemia ip, survival T/C. The assay can be described thus: NCI In Vivo Anticancer Drug Screen. Data for tumor model L1210 Leukemia (intraperitoneal) in CD2F1 (CDF1) mice. Conditions: higher = longer survival. The method, boiled down: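 Each value reflects a quotient of treated over vehicle control outcomes in mice with a transplanted tumor.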
The mark [1] stands for this setting: endpoint: mean survival time, dose: 25.0 mg/kg/injection, schedule: Q01DX009 (ip), vehicle: water.
The mark [2] stands for this setting: endpoint: mean survival time, dose: 100.0 mg/kg/injection, schedule: Q01DX001 (ip), vehicle: saline.
Setting [3] is: endpoint: mean survival time, dose: 200.0 mg/kg/injection, schedule: Q01DX001 (ip), vehicle: saline.
The mark [4] stands for this setting: endpoint: mean survival time, dose: 400.0 mg/kg/injection, schedule: Q01DX001 (ip), vehicle: saline.
[5] abbreviates: endpoint: mean survival time, dose: 100.0 mg/kg/injection, schedule: Q01DX009 (ip), vehicle: saline with Tween-80.
[6] abbreviates: endpoint: mean survival time, dose: 200.0 mg/kg/injection, schedule: Q01DX009 (ip), vehicle: saline with Tween-80.
[7] abbreviates: endpoint: mean survival time, dose: 400.0 mg/kg/injection, schedule: Q01DX009 (ip), vehicle: saline with Tween-80.
[8] abbreviates: endpoint: mean survival time, dose: 100.0 mg/kg/injection, schedule: Q04DX003 (ip), vehicle: saline with Tween-80.
Where [9] appears, read: endpoint: mean survival time, dose: 200.0 mg/kg/injection, schedule: Q04DX003 (ip), vehicle: saline with Tween-80.
Setting [10] is: endpoint: mean survival time, dose: 400.0 mg/kg/injection, schedule: Q04DX003 (ip), vehicle: saline with Tween-80.
The mark [11] stands for this setting: endpoint: mean survival time, dose: 100.0 mg/kg/injection, schedule: Q04DX003 (ip), vehicle: other.
The mark [12] stands for this setting: endpoint: mean survival time, dose: 200.0 mg/kg/injection, schedule: Q04DX003 (ip), vehicle: other.

In the case of `CC1NC(=O)C(NC(=O)c2cnc3ccccc3n2)COC(=O)C(C(C)C)N(C)C(=O)C2CSSCC(C(=O)N(C)C(C(C)C)C(=O)OCC(NC(=O)c3cnc4ccccc4n3)C(=O)NC(C)C(=O)N2C)N(C)C1=O` (stereo not given) (I: Quinoxaline2carbonyl-SA[NMeC][NMeV] / II: Quinoxaline2carbonyl-SA[NMeC][NMeV]; ester I:1-II:C, I:C-II:1; disulfide I:3-II:3; configuration not given here), the T/C was 101 % of control (endpoint: mean survival time, dose: 11.2 micrograms/kg/injection, schedule: Q01DX009 (ip), vehicle: Klucel (hydroxypropylcellulose) (HPC)); 103 % of control (endpoint: mean survival time, dose: 22.5 micrograms/kg/injection, schedule: Q01DX009 (ip), vehicle: Klucel (hydroxypropylcellulose) (HPC)); 105 % of control (endpoint: mean survival time, dose: 45.0 micrograms/kg/injection, schedule: Q01DX009 (ip), vehicle: Klucel (hydroxypropylcellulose) (HPC)); 114 % of control (endpoint: mean survival time, dose: 50.0 micrograms/kg/injection, schedule: Q01DX009 (ip), vehicle: other); 105 % of control (endpoint: mean survival time, dose: 90.0 micrograms/kg/injection, schedule: Q01DX009 (ip), vehicle: Klucel (hydroxypropylcellulose) (HPC)); 100 % of control (endpoint: mean survival time, dose: 180.0 micrograms/kg/injection, schedule: Q01DX009 (ip), vehicle: Klucel (hydroxypropylcellulose) (HPC)). Besides, the T/C (endpoint: mean survival time, dose: 200.0 micrograms/kg/injection, schedule: Q01DX009 (ip), vehicle: other) is 115 % of control.
For `Cc1cccnc1Br`, the T/C reads like this: (endpoint: mean survival time, dose: 12.5 mg/kg/injection, schedule: Q01DX009 (ip), vehicle: water) 95 % of control; under setting [1], 103 % of control; (endpoint: mean survival time, dose: 50.0 mg/kg/injection, schedule: Q01DX009 (ip), vehicle: water) 95 % of control; (endpoint: mean survival time, dose: 100.0 mg/kg/injection, schedule: Q01DX009 (ip), vehicle: water) 95 % of control; (endpoint: mean survival time, dose: 200.0 mg/kg/injection, schedule: Q01DX009 (ip), vehicle: water) 88 % of control.
On to `Cc1c(N=NN(C)C)cc[n+]([O-])c1C`, for which the T/C by setting is: (endpoint: mean survival time, dose: 11.0 mg/kg/injection, schedule: Q01DX009 (ip), vehicle: water) 121 % of control; under setting [1], 157 % of control; (endpoint: mean survival time, dose: 37.5 mg/kg/injection, schedule: Q01DX009 (ip), vehicle: water) 159 % of control.
Take `NCCCNC(=O)OCc1ccccc1`: the T/C under setting [2] was 105 % of control, the T/C under setting [3] was 102 % of control and the T/C under setting [4] was 102 % of control.
Consider `O=Cc1cc([N+](=O)[O-])ccc1OCC(=O)O`, for which the T/C by setting is: under setting [5], 92 % of control; under setting [6], 95 % of control; under setting [7], 96 % of control.
Turning to `CN(C)NC(=O)CC(NCc1ccccc1)C(=O)O` (stereo not given), the T/C was 102 % of control under setting [8], 101 % of control under setting [9] and 98 % of control under setting [10].
As to `N#CSc1ccc(Nc2ccc(SC#N)cc2)cc1`, the T/C (endpoint: mean survival time, dose: 12.5 mg/kg/injection, schedule: Q04DX003 (ip), vehicle: Klucel (hydroxypropylcellulose) (HPC)) was 113 % of control; the T/C (endpoint: mean survival time, dose: 25.0 mg/kg/injection, schedule: Q04DX003 (ip), vehicle: Klucel (hydroxypropylcellulose) (HPC)) is 109 % of control; the T/C (endpoint: mean survival time, dose: 50.0 mg/kg/injection, schedule: Q04DX003 (ip), vehicle: Klucel (hydroxypropylcellulose) (HPC)) is 107 % of control.
With `Cc1ccc(Cl)cc1NS(=O)(=O)c1ccccc1`, the T/C is, setting by setting: under setting [5], 94 % of control; under setting [8], 100 % of control; under setting [6], 96 % of control; under setting [9], 105 % of control; under setting [7], 94 % of control; under setting [10], 105 % of control.
Consider `CC(C)CC(NC(=O)OCc1ccccc1)C(=O)NCCCCCCCCCCNC(=O)C(CC(C)C)NC(=O)OCc1ccccc1` (stereo not given), for which the T/C by setting is: (endpoint: mean survival time, dose: 10.0 mg/kg/injection, schedule: Q01DX Z (ip), vehicle: saline) 96 % of control; (endpoint: mean survival time, dose: 30.0 mg/kg/injection, schedule: Q01DX Z (ip), vehicle: saline) 97 % of control; (endpoint: mean survival time, dose: 100.0 mg/kg/injection, schedule: Q01DX Z (ip), vehicle: saline) 91 % of control; (endpoint: mean survival time, dose: 300.0 mg/kg/injection, schedule: Q01DX Z (ip), vehicle: saline) 97 % of control.
Regarding `Nc1nc(N)c2c(n1)CN(c1ccc(Cl)cc1)C2`, the T/C is 104 % of control (endpoint: mean survival time, dose: 75.0 mg/kg/injection, schedule: Q01DX001 (ip), vehicle: saline); 96 % of control (endpoint: mean survival time, dose: 150.0 mg/kg/injection, schedule: Q01DX001 (ip), vehicle: saline); 98 % of control (endpoint: mean survival time, dose: 300.0 mg/kg/injection, schedule: Q01DX001 (ip), vehicle: saline).
Consider `Cc1c2c(cc3c1[nH]c1ccccc13)C(c1ccc(Cl)cc1)=NCC2`, for which the T/C is 101 % of control under setting [5]; 101 % of control under setting [8]; 98 % of control under setting [6]; 89 % of control under setting [9]; 106 % of control under setting [7]; 88 % of control under setting [10].
Consider `Nc1ncc2ccccc2c1-c1ccc(NC(=O)CN(CCCl)CCCl)cc1`, for which the T/C (endpoint: mean survival time, dose: 25.0 mg/kg/injection, schedule: Q04DX003 (ip), vehicle: other) was 106 % of control; the T/C (endpoint: mean survival time, dose: 50.0 mg/kg/injection, schedule: Q04DX003 (ip), vehicle: other) was 106 % of control; the T/C under setting [11] was 103 % of control; the T/C under setting [12] was 109 % of control; the T/C (endpoint: mean survival time, dose: 400.0 mg/kg/injection, schedule: Q04DX003 (ip), vehicle: other) is 112 % of control.
With `COc1cc(Cl)ccc1NC(=O)Oc1ccc(C)cc1[N+](=O)[O-]`, the T/C by setting is: (endpoint: mean survival time, dose: 5.0 mg/kg/injection, schedule: Q01DX009 (ip), vehicle: saline with Tween-80) 93 % of control; under setting [5], 96 % of control; under setting [6], 96 % of control.
For `CC(C)(C)c1ccc(OCC(=O)O)cc1`, the T/C under setting [11] was 100 % of control and the T/C under setting [12] is 101 % of control.
As to `O=C1CC(c2ccccc2)OC(c2ccccc2Cl)C1` (stereo not given), the T/C is 94 % of control under setting [8], 97 % of control under setting [9] and 94 % of control under setting [10].
Take `Cc1cc(NS(=O)(=O)c2ccc(N=Nc3cc(N=Nc4ccc(S(=O)(=O)Nc5cc(C)nc(C)n5)cc4)c4c(NC(=O)C(Cl)Cl)cccc4c3OC(=O)C(Cl)Cl)cc2)nc(C)n1` (tested in a mixture with another compound): the T/C is, setting by setting: (endpoint: median survival time, dose: 12.5 mg/kg/injection, schedule: Q01DX009 (ip), vehicle: suspension in saline) 103 % of control; (endpoint: median survival time, dose: 25.0 mg/kg/injection, schedule: Q01DX009 (ip), vehicle: suspension in saline) 103 % of control; (endpoint: median survival time, dose: 50.0 mg/kg/injection, schedule: Q01DX009 (ip), vehicle: suspension in saline) 98 % of control; (endpoint: median survival time, dose: 100.0 mg/kg/injection, schedule: Q01DX009 (ip), vehicle: suspension in saline) 104 % of control; (endpoint: median survival time, dose: 200.0 mg/kg/injection, schedule: Q01DX009 (ip), vehicle: suspension in saline) 104 % of control.
On to `O=c1c(Br)cocc1Br`, for which the T/C is 104 % of control (endpoint: mean survival time, dose: 100.0 mg/kg/injection, schedule: Q04DX003 (ip), vehicle: saline sonified); 102 % of control (endpoint: mean survival time, dose: 200.0 mg/kg/injection, schedule: Q04DX003 (ip), vehicle: saline sonified); 102 % of control (endpoint: mean survival time, dose: 400.0 mg/kg/injection, schedule: Q04DX003 (ip), vehicle: saline sonified).
As for `CC(C)CN(CC(C)C)c1ccc([N+](=O)[O-])cc1[N+](=O)[O-]`, the T/C runs as follows: under setting [5], 97 % of control; under setting [6], 95 % of control; under setting [7], 94 % of control.
Turning to `O=C1CN(CCN2CC(=O)N(C(=O)c3ccccc3)C2=S)C(=S)N1Cc1ccccc1`, the T/C was 96 % of control (endpoint: mean survival time, dose: 50.0 mg/kg/injection, schedule: Q01DX009 (ip), vehicle: saline with Tween-80); 96 % of control under setting [5]; 96 % of control under setting [6].
On to `CC12C(=O)OC(=O)C1(C)C1CCC2O1` (stereo not given), for which the T/C runs as follows: (endpoint: mean survival time, dose: 0.39 mg/kg/injection, schedule: Q01DX009 (ip), vehicle: saline with Tween-80) 94 % of control; (endpoint: mean survival time, dose: 0.78 mg/kg/injection, schedule: Q01DX009 (ip), vehicle: saline with Tween-80) 98 % of control; (endpoint: mean survival time, dose: 1.56 mg/kg/injection, schedule: Q01DX009 (ip), vehicle: saline with Tween-80) 105 % of control; (endpoint: mean survival time, dose: 1.56 mg/kg/injection, schedule: Q04DX002 (ip), vehicle: saline with Tween-80) 92 % of control.
As for `C=Cc1cc[n+](CCCCCC[n+]2ccc(C=C)cc2)cc1`, the T/C runs as follows: under setting [2], 92 % of control; under setting [3], 92 % of control; under setting [4], 88 % of control.
